The values that follow come from patent US11446260B2, “Pharmaceutical composition of S-ketamine hydrochloride” (Janssen Pharmaceutica NV, priority 2013, dated 2022).

Common to all, as to type: cell-based
In one assay the test system is C. albicans. Briefly: Full AET Challenge Test. The conditions noted are these: Candida albicans; summary of Examples 1 and 2.
For a further assay, the system named is S. haemolyticus. Briefly: Challenge test (Example 1). The following applies: Staphylococcus haemolyticus; summary of Examples 1 and 2.
Another assay relates to M. luteus. Briefly: Full AET Challenge Test. The following applies: Micrococcus Luteus; summary of Examples 1 and 2.
A further assay relates to S. aureus. Briefly: Full AET Challenge Test. The following applies: Staphylococcus aureus; summary of Examples 1 and 2.
For the next assay, the system named is P. aeruginosa. Briefly: Full AET Challenge Test. The conditions noted are these: Pseudomonas aeruginosa; summary of Examples 1 and 2.
A further assay relates to A. brasiliensis. Briefly: Full AET Challenge Test. The following applies: Aspergillus brasiliensis; summary of Examples 1 and 2.
For the next assay, the system named is E. coli. Briefly: Full AET Challenge Test. The conditions noted are these: Escherichia coli; summary of Examples 1 and 2.

For `CN[C@]1(c2ccccc2Cl)CCCCC1=O.Cl` [S-ketamine hydrochloride, (S)-2-(2-chlorophenyl)-2-(methylamino)cyclohexanone hydrochloride], the “antimicrobial properties (summary in words)” value in the assay with C. albicans is “strong antimicrobial properties”; in the assay with S. haemolyticus, “strong antimicrobial properties”; in the assay on M. luteus, “strong antimicrobial properties”; in the assay on S. aureus it was “strong antimicrobial properties”; in the assay with P. aeruginosa, “strong antimicrobial properties”; in the assay with A. brasiliensis, “some inhibitory activity”. For the same compound, the “antimicrobial properties (summary in words)” value with E. coli was “strong antimicrobial properties”.
